Reference: ChEMBL document CHEMBL1201862, “PubChem BioAssay data set” (2004)
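Test compounds were applied to cells in 96-well plates for 48 hours at 5 doses. The concentration for 50% growth inhibition is given as GI50.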 Calls of active or inactive are those of the source. No stated cut-off is given here; in the data, active = GI50 up to about 1.1 µM and inactive = higher.

What was measured:
Assay in all cases: inhibition of tumour cell growth, NCI panel, 48 h
MOLT-4 = system: MOLT-4
NCI-H522 = system: NCI-H522
SN12C = system: SN12C
T47D = system: T47D
OVCAR-8 = system: OVCAR-8
HCT-116 = system: HCT-116
HOP-62 = system: HOP-62
CCRF-CEM = system: CCRF-CEM
KM12 = system: KM12
EKVX = system: EKVX
SR = system: SR
SF-539 = system: SF-539
SW-620 = system: SW-620
ACHN = system: ACHN
U-251 = system: U-251
SF-295 = system: SF-295
K562 = system: K562
HCT-15 = system: HCT-15
TK-10 = system: TK-10
A498 = system: A498
RXF 393 = system: RXF 393
COLO 205 = system: COLO 205
NCI-H23 = system: NCI-H23
HOP-92 = system: HOP-92
MCF7 = system: MCF7
NCI-H460 = system: NCI-H460
HL-60 = system: HL-60
UACC-257 = system: UACC-257
M14 = system: M14
UO-31 = system: UO-31
CAKI-1 = system: CAKI-1
OVCAR-5 = system: OVCAR-5
SK-MEL-5 = system: SK-MEL-5
MDA-MB-231 = system: MDA-MB-231
SNB-19 = system: SNB-19
UACC-62 = system: UACC-62
BT-549 = system: BT-549
HT-29 = system: HT-29
OVCAR-4 = system: OVCAR-4
IGROV-1 = system: IGROV-1
A549 = system: A549
SK-MEL-2 = system: SK-MEL-2
MDA-MB-435 = system: MDA-MB-435
OVCAR-3 = system: OVCAR-3
LOX IMVI = system: LOX IMVI
SK-MEL-28 = system: SK-MEL-28
786-0 = system: 786-0
HCC 2998 = system: HCC 2998
PC-3 = system: PC-3
Hs-578T = system: Hs-578T
NCI/ADR-RES = system: NCI/ADR-RES
SF-268 = system: SF-268
DU-145 = system: DU-145
SNB-75 = system: SNB-75
RPMI-8226 = system: RPMI-8226
NCI-H226 = system: NCI-H226
Malme-3M = system: Malme-3M

Q: COc1cc2c3c(c1OC)C(=O)C(=O)C1=C3N(CCC1)CC2 was tested. Which GI50 (MOLT-4) did it give?
A: Its GI50 is 18.9 µM (inactive).

Q: And the GI50 (NCI-H522)?
A: Its GI50 is 19.7 µM (inactive).

Q: What about the GI50 (SN12C) of the same compound?
A: Its GI50 is 32.4 µM (inactive).

Q: And the GI50 (T47D)?
A: Its GI50 is 23.2 µM (inactive).

Q: And the GI50 (OVCAR-8)?
A: The GI50 was 21.5 µM (inactive).

Q: What about the GI50 (HCT-116) of the same compound?
A: Its GI50 is 18.5 µM (inactive).

Q: And the GI50 (HOP-62)?
A: The GI50 was 30.5 µM (inactive).

Q: What about the GI50 (CCRF-CEM) of the same compound?
A: Its GI50 is 20.3 µM (inactive).

Q: And the GI50 (KM12)?
A: The GI50 was 17 µM (inactive).

Q: And the GI50 (EKVX)?
A: The GI50 was 17.5 µM (inactive).

Q: And the GI50 (SR)?
A: Its GI50 is 18.5 µM (inactive).

Q: What about the GI50 (SF-539) of the same compound?
A: The GI50 was 29.6 µM (inactive).

Q: What about the GI50 (SW-620) of the same compound?
A: The GI50 was 32.4 µM (inactive).

Q: And the GI50 (ACHN)?
A: Its GI50 is 42.1 µM (inactive).

Q: And the GI50 (U-251)?
A: The GI50 was 15.5 µM (inactive).

Q: And the GI50 (SF-295)?
A: The GI50 was 23.5 µM (inactive).

Q: What about the GI50 (K562) of the same compound?
A: The GI50 was 5.7 µM (inactive).

Q: And the GI50 (HCT-15)?
A: The GI50 was 27.9 µM.

Q: And the GI50 (TK-10)?
A: The GI50 was 70 µM (inactive).

Q: What about the GI50 (A498) of the same compound?
A: The GI50 was 30.3 µM (inactive).

Q: And the GI50 (RXF 393)?
A: The GI50 was 26.6 µM (inactive).

Q: And the GI50 (COLO 205)?
A: Its GI50 is 10.4 µM (inactive).

Q: And the GI50 (NCI-H23)?
A: The GI50 was 20.6 µM (inactive).

Q: And the GI50 (HOP-92)?
A: The GI50 was 19.4 µM (inactive).

Q: What about the GI50 (MCF7) of the same compound?
A: The GI50 was 14.9 µM (inactive).

Q: What about the GI50 (NCI-H460) of the same compound?
A: The GI50 was 12.2 µM (inactive).

Q: And the GI50 (HL-60)?
A: The GI50 was 19.1 µM (inactive).

Q: What about the GI50 (UACC-257) of the same compound?
A: Its GI50 is 28.6 µM (inactive).

Q: And the GI50 (M14)?
A: Its GI50 is 26.4 µM (inactive).

Q: And the GI50 (UO-31)?
A: Its GI50 is 41 µM (inactive).

Q: What about the GI50 (CAKI-1) of the same compound?
A: The GI50 was 32.4 µM (inactive).

Q: And the GI50 (OVCAR-5)?
A: The GI50 was 52.2 µM (inactive).

Q: And the GI50 (SK-MEL-5)?
A: The GI50 was 33 µM (inactive).

Q: What about the GI50 (MDA-MB-231) of the same compound?
A: Its GI50 is 31.3 µM (inactive).

Q: And the GI50 (SNB-19)?
A: Its GI50 is 63.4 µM (inactive).

Q: What about the GI50 (UACC-62) of the same compound?
A: The GI50 was 18.1 µM (inactive).

Q: What about the GI50 (BT-549) of the same compound?
A: The GI50 was 21.8 µM (inactive).

Q: What about the GI50 (HT-29) of the same compound?
A: Its GI50 is 24.3 µM (inactive).

Q: And the GI50 (OVCAR-4)?
A: The GI50 was 24.2 µM (inactive).

Q: And the GI50 (IGROV-1)?
A: Its GI50 is 28.7 µM (inactive).

Q: And the GI50 (A549)?
A: The GI50 was 34.8 µM (inactive).

Q: What about the GI50 (SK-MEL-2) of the same compound?
A: The GI50 was 48.9 µM (inactive).

Q: What about the GI50 (MDA-MB-435) of the same compound?
A: Its GI50 is 22 µM (inactive).

Q: And the GI50 (OVCAR-3)?
A: Its GI50 is 23.6 µM (inactive).

Q: What about the GI50 (LOX IMVI) of the same compound?
A: The GI50 was 26.7 µM (inactive).

Q: And the GI50 (SK-MEL-28)?
A: The GI50 was 36.9 µM (inactive).

Q: And the GI50 (786-0)?
A: Its GI50 is 43.4 µM (inactive).

Q: What about the GI50 (HCC 2998) of the same compound?
A: The GI50 was 36.7 µM (inactive).

Q: And the GI50 (PC-3)?
A: Its GI50 is 31.5 µM (inactive).

Q: And the GI50 (Hs-578T)?
A: Its GI50 is 2.72 µM (inactive).

Q: And the GI50 (NCI/ADR-RES)?
A: The GI50 was 56 µM (inactive).

Q: And the GI50 (SF-268)?
A: The GI50 was 13.2 µM (inactive).

Q: What about the GI50 (DU-145) of the same compound?
A: Its GI50 is 38 µM (inactive).

Q: Which results are given for CC(C)(O)c1cc2c(cc1C(C)(C)O)-c1ccccc1-2?
A: GI50 (MOLT-4): > 100 µM (inactive); GI50 (NCI-H522): > 100 µM (inactive); GI50 (SN12C): > 100 µM (inactive); GI50 (SNB-75): 29.2 µM (inactive); GI50 (T47D): > 100 µM (inactive); GI50 (OVCAR-8): > 100 µM (inactive); GI50 (CCRF-CEM): > 100 µM (inactive); GI50 (KM12): > 100 µM (inactive); GI50 (EKVX): 59.7 µM (inactive); GI50 (SR): > 100 µM (inactive); GI50 (SF-539): > 100 µM (inactive); GI50 (SW-620): > 100 µM (inactive); GI50 (ACHN): 85.3 µM (inactive); GI50 (U-251): > 100 µM (inactive); GI50 (SF-295): 67.1 µM (inactive); GI50 (K562): > 100 µM (inactive); GI50 (HCT-15): > 100 µM; GI50 (TK-10): > 100 µM (inactive); GI50 (A498): > 100 µM (inactive); GI50 (RXF 393): 71.9 µM (inactive); GI50 (RPMI-8226): > 100 µM (inactive); GI50 (COLO 205): > 100 µM (inactive); GI50 (HOP-92): 17.9 µM (inactive); GI50 (MCF7): > 100 µM (inactive); GI50 (NCI-H460): > 100 µM (inactive); GI50 (HL-60): > 100 µM (inactive); GI50 (UACC-257): > 100 µM (inactive); GI50 (M14): > 100 µM (inactive); GI50 (CAKI-1): > 100 µM (inactive); GI50 (OVCAR-5): > 100 µM (inactive); GI50 (SK-MEL-5): > 100 µM (inactive); GI50 (MDA-MB-231): > 100 µM (inactive); GI50 (SNB-19): > 100 µM (inactive); GI50 (UACC-62): 36.2 µM (inactive); GI50 (BT-549): > 100 µM (inactive); GI50 (OVCAR-4): > 100 µM (inactive); GI50 (IGROV-1): > 100 µM (inactive); GI50 (NCI-H226): > 100 µM (inactive); GI50 (A549): > 100 µM (inactive); GI50 (SK-MEL-2): > 100 µM (inactive); GI50 (MDA-MB-435): > 100 µM (inactive); GI50 (OVCAR-3): > 100 µM (inactive); GI50 (LOX IMVI): > 100 µM (inactive); GI50 (SK-MEL-28): > 100 µM (inactive); GI50 (Malme-3M): > 100 µM (inactive); GI50 (786-0): 79.8 µM (inactive); GI50 (HCC 2998): > 100 µM (inactive); GI50 (PC-3): > 100 µM (inactive); GI50 (Hs-578T): 29.6 µM (inactive); GI50 (NCI/ADR-RES): > 100 µM (inactive); GI50 (SF-268): 43.8 µM (inactive); GI50 (DU-145): > 100 µM (inactive)
